Where two headings read alike, the source gives them in different places.
Columns and labels:
Assay type in all cases: cell-based
CXCR4 receptor = target: T1, CXCR4 receptor (Homo sapiens, UniProt P61073); test: Functional FLIPR assay (block of SDF-1 alpha induced [Ca2+]i change); settings: HEK-293 cells with human CXCR4 BacMam and Gqi5 BacMam; antagonism of SDF-1 alpha; read-out: Functional assay (pIC50) (converted)
T1 construct: expressed in transfected cells; host or cells: HEK-293 cells (stably expressing human macrophage scavenging receptor) transduced with human CXCR4 BacMam and Gqi5 BacMam
Description: Human embryonic kidney (HEK-293) cells were maintained and harvested as described above. Cells were plated in 96-well, black clear bottom, poly-lysine coated plates at a concentration of 40,000 cells per well in a final volume of 100 ul containing human CXCR4 BacMam (MOI=25) and Gqi5 BacMam (MOI=12.5). The cells were incubated at 37° C., 5% CO2, 95% humidity for 24 h to allow for protein expression.
After the required incubation time the cells were washed once with 50 ul of fresh serum-free DMEM/F12 media containing probenicid. 50 ul of dye solution was then added to the cells (Calcium Plus Assay Kit Dye; Molecular Devices) was dissolved in 200 ml of the above probenicid/BSA containing media and incubated for 1 h. Cell plates were transferred to a Fluorometric Imaging Plate Reader (FLIPR). Upon addition the effect of the compounds on the change in [Ca^2+]i was examined to determine if the compounds were agonists or antagonists (ability to block SDF-1 alpha activity) at the CXCR4 receptor. IC50 values are determined and pKb values are calculated using the Leff and Dougall equation: KB=IC50/((2+([agonist]/EC50̂b)̂1/b -1) Where IC50 is that defined by the antagonist concentration-response curve [agonist] is the EC80 concentration of agonist used EC50 is that defined by the agonist concentration-response curve b is the slope of the agonist concentration-response curve.

[1] = Compound cytotoxicity in the absence of virus (CellTiter-Glo); settings: human; non-infected HOS cultures, cell viability; read-out: Cytotox (pIC50) (converted)
Description: (§1) Compounds were profiled against two HIV-1 viruses, the M-tropic (CCR5 utilizing) Ba-L strain and the T-tropic (CXCR4 utilizing) IIIB strain. Both viruses were propagated in human peripheral blood lymphocytes. Compounds were tested for there ability to block infection of the HOS cell line (expressing hCXCR4/hCCR5/hCD4/pHIV-LTR-luciferase) by either HIV-1 Ba-L or HIV-1 IIIB. Compound cytotoxicity was also examined in the absence of virus addition.
(§2) HOS cells (expressing hCXCR4/hCCR5/hCD4/pHIV-LTR-luciferase) were harvested and diluted in Dulbeccos modified Eagles media supplemented with 2% FCS and non-essential amino acid to a concentration of 60,000 cells/ml. The cells were plated into 96-well plates (100 ul per well) and the plates were placed in a tissue culture incubator (37° C.; 5% CO2/95% air) for a period of 24 h.
(§3) Subsequently, 50 ul of the desired drug solution (4 times the final concentration) was added to each well and the plates were returned to the tissue culture incubator (37° C.; 5% CO2/95% air) for 1 h. Following this incubation 50 ul of diluted virus was added to each well (approximately 2 million RLU per well of virus). The plates were returned to the tissue culture incubator (37° C.; 5% CO2/95% air) and were incubated for a further 96 h.
(§4) Following this incubation the endpoint for the virally infected cultures was quantified following addition of Steady-Glo Luciferase assay system reagent (Promega, Madison, Wis.). Cell viability or non-infected cultures was measured using a CellTiter-Glo luminescent cell viability assay system (Promega, Madison, Wis.). All luminescent readouts are performed on a Topcount luminescence detector (Packard, Meridien, Conn.).

[2] = system: HIV-1 IIIB strain, T-tropic (CXCR4 utilizing); test: HOS HIV-1 infectivity assay
Description: as §1, §2, §3, §4

[3] = system: HIV-1 gp160 (HXB2 strain) mediated fusion with HOS (hCXCR4/hCCR5/hCD4/pHIV-LTR-luciferase) cells; test: Cell/cell fusion assay (HEK-293 expressing HIV-1 tat, rev, gp160 with HOS hCXCR4/hCCR5/hCD4/pHIV-LTR-luciferase cells); settings: Homo sapiens, HEK293; luciferase readout after 24 h; read-out: Fusion assay (pIC50) (converted)
Text: The complete coding sequences of HIV-1 tat (GenBank Accession No. X07861) and rev (GenBank Accession No. M34378) were cloned into pcDNA3.1 expression vectors containing G418 and hygromycin resistance genes, respectively. The complete coding sequence of the HIV-1 (HXB2 strain) gp160 envelope gene (nucleotide bases 6225-8795 of GenBank Accession No. K03455) was cloned into plasmid pCRII-TOPO. The three HIV genes were additionally inserted into the baculovirus shuttle vector, pFastBacMam1, under the transcriptional control of the CMV promoter. A construction of the pHIV-I LTR containing mutated NFkB sequences linked to the luciferase reporter gene was prepared by digesting pcDNA3.1, containing the G418 resistance gene, with Nru I and Bam HI to remove the CMV promoter. LTR-luc was then cloned into the Nru I/Bam HI sites of the plasmid vector. Plasmid preparations were performed after the plasmids were amplified in Escherichia coli strain DH5-alpha. The fidelity of the inserted sequences was confirmed by double-strand nucleotide sequencing using an ABI Prism Model 377 automated sequencer.
Recombinant BacMam baculoviruses were constructed from pFastBacMam shuttle plasmids by using the bacterial cell-based Bac-to-Bac system. Viruses were propagated in Sf9 (Spodoptera frugiperda) cells cultured in Hink's TNM-FH Insect media supplemented with 10% (v/v) fetal bovine serum and 0.1% (v/v) pluronic F-68 according to established protocols.
Human osteosarcoma (HOS) cells that naturally express human CXCR4 were transfected with human CCR5, human CD4 and the pHIV-LTR-luciferase plasmid using FuGENE 6 transfection reagent. Single cells were isolated and grown under selection condition in order to generate a stable HOS (hCXCR4/hCCR5/hCD4/pHIV-LTR-luciferase) clonal cell line. The cells were maintained in Dulbeccos modified Eagles media supplemented with 10% fetal calf serum (FCS), G418 (400 ug/ml), puromycin (1 ug/ml), mycophenolic acid (40 ug/ml), xanthine (250 ug/ml) and hypoxanthine (13.5 ug/ml) to maintain a selection pressure for cells expressing the LTR-luciferase, hCCR5 and hCD4, respectively. Human embryonic kidney (HEK-293) cells stably transfected to express the human macrophage scavenging receptor (Class A, type 1; GenBank Accession No. D90187), were maintained in DMEM/F-12 media (1:1) supplemented with 10% FCS and 1.5 ug/ml puromycin. The expression of this receptor by the HEK-293 cells enhances their ability to stick to tissue culture treated plasticware.
HEK-293 cells were harvested using enzyme-free cell dissociation buffer. The cells were resuspended in DMEM/F-12 media supplemented with 10% FCS and 1.5 ug/ml and counted. Tranductions were performed by direct addition of BacMam baculovirus containing insect cell media to cells. The cells were simultaneously transduced with BacMam baculovirus expressing HIV-1 tat, HIV-1 rev and HIV-1 gp160 (from the HXB2 HIV strain). Routinely an MOI of 10 of each virus was added to the media containing the cells. 2 mM butyric acid was also added to the cells at this stage to increase protein expression in transduced cells. The cells were subsequently mixed and seeded into a flask at 30 million cells per T225. The cells were incubated at 37° C., 5% CO2, 95% humidity for 24 h to allow for protein expression.
HEK and HOS cells were harvested in DMEM/F-12 media containing 2% FCS and DMEM media containing 2% FCS, respectively, with no selection agents added. Compounds were plated as 1 ul spots in 100% DMSO on a 96-well CulturPlate plates. HOS cells (50 ul) were added first to the wells, followed immediately by the HEK cells (50 ul). The final concentration of each cell type was 20,000 cells per well. Following these additions, the cells were returned to a tissue culture incubator (37° C.; 5% CO2/95% air) for an additional 24 h.
Following the 24 h incubation, total cellular luciferase activity was measured using the LucLite Plus assay kit (Packard, Meridien, Conn.). […]

[4] = Human immunodeficiency virus 1, IIIB, HOS HIV anti-infectivity assay, strain not named in Table 2, read-out: Activity Level
[5] = Human immunodeficiency virus 1, HOS cells, HIV-1 IIIB, 96 h, luciferase, read-out: HOS (3B)

T1 sequence (P61073 whole entry): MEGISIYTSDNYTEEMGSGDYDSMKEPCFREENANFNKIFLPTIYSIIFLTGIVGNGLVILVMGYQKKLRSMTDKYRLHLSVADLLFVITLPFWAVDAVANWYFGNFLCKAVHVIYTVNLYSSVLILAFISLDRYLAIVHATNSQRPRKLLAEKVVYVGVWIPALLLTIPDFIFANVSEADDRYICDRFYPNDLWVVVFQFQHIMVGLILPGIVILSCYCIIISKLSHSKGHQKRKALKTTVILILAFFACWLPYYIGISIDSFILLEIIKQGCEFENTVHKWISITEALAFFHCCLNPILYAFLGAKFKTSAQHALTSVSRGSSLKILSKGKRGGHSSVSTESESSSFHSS

| Compound | IC50 (CXCR4 receptor) [nM] | IC50 at 96 h [1] [nM] | IC50 [2, 4] [µM] | IC50 [2, 5] [µM] | IC50 [3] [nM] | IC50 ([2]; Human immunodeficiency virus 1, IIIB, HOS, 96 h, read-out: HOS (3B) (μM)) [µM] | IC50 ([2]; Human immunodeficiency virus 1, IIIB, read-out: Activity Level) [µM] |
| --- | --- | --- | --- | --- | --- | --- | --- |
| NCCCCN(Cc1cn2cc(Cl)cc(Cl)c2n1)C1CCCc2cccnc21 (stereo not shown) [Example 16, N-[(6,8-Dichloroimidazo[1,2-a]pyridin-2-yl)methyl]-N-(5,6,7,8-tetrahydro-8-quinolinyl)-1,4-butanediamine] | 49 | > 100000 | 0.1 to 0.5 | 0.133 | 1290 |  |  |
| N#Cc1ccc2nc(CN(CCCCN)C3CCCc4cccnc43)cn2c1 (stereo not shown) [Example 9, 2-{[(4-Aminobutyl)(5,6,7,8-tetrahydro-8-quinolinyl)amino]methyl}imidazo [1,2-a]pyridine-6-carbonitrile] | 112 | > 100000 | 0.1 to 0.5 | 0.112 | 372 |  |  |
| NCCCCN(Cc1cn2c(N3CCOCC3)cccc2n1)C1CCCc2cccnc21 (stereo not shown) [Example 23, N-{[5-(4-Morpholinyl)imidazo[1,2-a]pyridin-2-yl]methyl}-N-(5,6,7,8-tetrahydro-8-quinolinyl)-1,4-butanediamine] | 158 | > 100000 | < 0.1 | 0.077 | 324 |  |  |
| Cc1cc(Br)cn2cc(CN(CCCCN)C3CCCc4cccnc43)nc12 (stereo not shown) [Example 19, N-[(6-Bromo-8-methylimidazo[1,2-a]pyridin-2-yl)methyl]-N-(5,6,7,8-tetrahydro-8-quinolinyl)-1,4-butanediamine] | 67.6 | > 100000 | 0.1 to 0.5 | 0.14 | 537 |  |  |
| NCCCCN(Cc1cn2c(C(F)(F)F)cccc2n1)C1CCCc2cccnc21 (stereo not shown) [Example 8, N-(5,6,7,8-Tetrahydro-8-quinolinyl)-N-{[5-(trifluoromethyl)imidazo[1,2-a]pyridin-2-yl]methyl}-1,4-butanediamine] | 19.5 | > 100000 | < 0.1 | 0.045 | 174 |  |  |
| NCCCCN(Cc1cn2c(F)cccc2n1)C1CCCc2cccnc21 (stereo not shown) [Example 14, N-[(5-Fluoroimidazo[1,2-a]pyridin-2-yl)methyl]-N-(5,6,7,8-tetrahydro-8-quinolinyl)-1,4-butanediamine] | 100 | > 100000 | < 0.1 | 0.091 | 407 |  |  |
| Cc1c(Br)ccc2nc(CN(CCCCN)C3CCCc4cccnc43)cn12 (stereo not shown) [Example 18, N-[(6-Bromo-5-methylimidazo[1,2-a]pyridin-2-yl)methyl]-N-(5,6,7,8-tetrahydro-8-quinolinyl)-1,4-butanediamine] | 30.9 | > 100000 | < 0.1 | 0.088 | 155 |  |  |
| Cc1cccn2cc(CN(CCCCN)C3CCCc4cccnc43)nc12 (stereo not shown) [Example 2, N-[(8-Methylimidazo[1,2-a]pyridin-2-yl)methyl]-N-(5,6,7,8-tetrahydro-8-quinolinyl)-1,4-butanediamine] | 53.7 | > 100000 |  |  | 324 | 0.023 | < 0.1 |
| NCCCCN(Cc1cn2c(Cl)cccc2n1)C1CCCc2cccnc21 (stereo not shown) [Example 13, N-[(5-Chloroimidazo[1,2-a]pyridin-2-yl)methyl]-N-(5,6,7,8-tetrahydro-8-quinolinyl)-1,4-butanediamine] | 40.7 | > 100000 | < 0.1 | 0.025 | 91.2 |  |  |
| COc1cccc2nc(CN(CCCCN)C3CCCc4cccnc43)cn12 (stereo not shown) [Example 25, N-{[5-(Methyloxy)imidazo[1,2-a]pyridin-2-yl]methyl}-N-(5,6,7,8-tetrahydro-8-quinolinyl)-1,4-butanediamine] | 10.2 | > 100000 | < 0.1 | 0.015 | 123 |  |  |
| Cc1cc(C)n2cc(CN(CCCCN)C3CCCc4cccnc43)nc2c1 (stereo not shown) [Example 15, N-[(5,7-Dimethylimidazo[1,2-a]pyridin-2-yl)methyl]-N-(5,6,7,8-tetrahydro-8-quinolinyl)-1,4-butanediamine] | 93.3 | > 100000 | 0.1 to 0.5 | 0.112 | 316 |  |  |

— patent US20080171740A1, “Chemical Compounds” (SMITHKLINE BEECHAM CORPORATION, priority 2004, published 2008)
